{"source": "ChEMBL document CHEMBL4811240", "about": "“Discovery of N-substituted sulfamoylbenzamide derivatives as novel inhibitors of STAT3 signaling pathway based on Niclosamide” (Eur J Med Chem, 2021)", "key": {"[1]": {"molecular_target": "Signal transducer and activator of transcription 3 (Homo sapiens) (UniProt P40763)", "sequence (P40763 whole entry)": "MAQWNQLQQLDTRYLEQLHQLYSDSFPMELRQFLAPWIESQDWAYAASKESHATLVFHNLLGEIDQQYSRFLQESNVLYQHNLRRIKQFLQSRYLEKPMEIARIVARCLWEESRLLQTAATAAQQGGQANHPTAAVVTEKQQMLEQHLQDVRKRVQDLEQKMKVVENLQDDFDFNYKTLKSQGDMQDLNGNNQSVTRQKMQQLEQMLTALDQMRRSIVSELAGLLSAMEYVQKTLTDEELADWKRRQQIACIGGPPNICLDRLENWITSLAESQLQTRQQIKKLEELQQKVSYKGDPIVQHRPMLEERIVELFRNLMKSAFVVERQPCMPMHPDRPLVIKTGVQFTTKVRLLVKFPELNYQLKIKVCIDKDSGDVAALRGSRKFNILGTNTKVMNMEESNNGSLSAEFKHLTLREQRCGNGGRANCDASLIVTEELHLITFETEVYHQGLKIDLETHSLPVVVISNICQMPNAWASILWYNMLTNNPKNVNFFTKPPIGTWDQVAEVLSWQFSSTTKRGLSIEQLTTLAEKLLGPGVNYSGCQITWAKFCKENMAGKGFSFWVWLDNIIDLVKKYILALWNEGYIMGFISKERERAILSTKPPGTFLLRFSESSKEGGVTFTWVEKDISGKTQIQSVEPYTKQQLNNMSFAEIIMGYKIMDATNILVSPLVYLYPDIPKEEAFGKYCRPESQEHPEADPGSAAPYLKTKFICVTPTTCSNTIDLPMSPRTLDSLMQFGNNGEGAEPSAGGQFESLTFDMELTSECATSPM", "test": "Inhibition of STAT3 phosphorylation at Y705 residue in human MDA-MB-231 cells incubated for 2 hrs by Western blotting analysis", "assay_type": "cell-based", "conditions": "dose 1-10 µM"}, "MDA-MB-231 [2]": {"system": "MDA-MB-231", "test": "Effect on total STAT3 expression in human MDA-MB-231 cells at 1 to 10 uM incubated for 2 hrs by Western blotting analysis", "assay_type": "functional, cell-based", "conditions": "dose 1-10 µM"}, "[3]": {"molecular_target": "Non-receptor tyrosine-protein kinase TYK2 (Homo sapiens) (UniProt P29597)", "sequence (P29597 whole entry, the tested form may be a part)": "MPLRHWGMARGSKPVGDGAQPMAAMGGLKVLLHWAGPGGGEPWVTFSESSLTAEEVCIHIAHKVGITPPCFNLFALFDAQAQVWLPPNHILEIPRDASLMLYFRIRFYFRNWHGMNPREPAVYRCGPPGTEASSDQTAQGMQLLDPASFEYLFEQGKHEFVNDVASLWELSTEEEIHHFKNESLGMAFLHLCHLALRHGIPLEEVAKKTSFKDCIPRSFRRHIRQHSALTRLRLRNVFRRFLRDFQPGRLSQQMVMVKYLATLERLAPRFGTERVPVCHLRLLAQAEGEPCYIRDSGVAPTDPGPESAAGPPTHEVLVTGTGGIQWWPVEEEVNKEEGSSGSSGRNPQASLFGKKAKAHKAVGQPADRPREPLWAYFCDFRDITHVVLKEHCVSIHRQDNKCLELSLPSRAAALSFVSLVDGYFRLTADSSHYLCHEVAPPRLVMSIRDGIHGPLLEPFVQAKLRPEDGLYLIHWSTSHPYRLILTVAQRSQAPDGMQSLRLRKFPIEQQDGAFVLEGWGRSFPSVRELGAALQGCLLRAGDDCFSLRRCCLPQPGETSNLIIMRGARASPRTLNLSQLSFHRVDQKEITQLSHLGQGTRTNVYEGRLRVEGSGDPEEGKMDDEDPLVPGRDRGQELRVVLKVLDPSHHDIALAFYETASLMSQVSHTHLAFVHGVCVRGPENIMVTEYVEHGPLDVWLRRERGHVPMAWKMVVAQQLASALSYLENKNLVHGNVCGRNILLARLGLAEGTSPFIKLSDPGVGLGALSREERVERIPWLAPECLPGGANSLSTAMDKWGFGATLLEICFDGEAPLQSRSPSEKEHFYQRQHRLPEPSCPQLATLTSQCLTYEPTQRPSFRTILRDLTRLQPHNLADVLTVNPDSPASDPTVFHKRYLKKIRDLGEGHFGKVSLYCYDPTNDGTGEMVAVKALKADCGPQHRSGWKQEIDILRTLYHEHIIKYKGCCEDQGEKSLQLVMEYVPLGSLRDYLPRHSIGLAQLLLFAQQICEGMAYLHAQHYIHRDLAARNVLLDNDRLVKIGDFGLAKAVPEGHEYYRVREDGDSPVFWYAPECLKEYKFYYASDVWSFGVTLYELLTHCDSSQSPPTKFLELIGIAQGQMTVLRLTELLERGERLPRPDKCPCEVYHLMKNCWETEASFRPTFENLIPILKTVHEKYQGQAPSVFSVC", "test": "Inhibition of TYK2 (871 to 1187 residues) (unknown origin) expressed in Sf21 cells at 10 uM preincubated for 10 mins followed by peptide substrate addition relative to control"}, "MDA-MB-231 [4]": {"system": "MDA-MB-231", "test": "Induction of apoptosis in human MDA-MB-231 cells assessed as apoptotic cells at 5 uM measured after 24 hrs by annexinV-FITC/propidium iodide staining based flow cytometry analysis (reference value: 2.49%)", "assay_type": "functional"}}, "note": "Activity calls are given as the source filed them. No cut-off for these calls is given here.", "data": [{"smiles": "CC(C)(C)OC(=O)c1ccc(NC(=O)c2ccc(Cl)c(S(N)(=O)=O)c2)cc1", "values": [{"measurement": "inhibition", "setting": "[1]", "value": "Dose-Dependent Effect"}, {"measurement": "inhibition", "setting": "MDA-MB-231 [2]", "value": "Active"}, {"measurement": "inhibition", "setting": "[3]", "value": -1.53, "unit": "%"}, {"measurement": "Activity", "setting": "MDA-MB-231 [4]", "value": 23.14, "unit": "%"}]}]}
